ChEMBL document CHEMBL2163213, “Synthesis and bioevaluation of novel 3,4,5-trimethoxybenzylbenzimidazole derivatives that inhibit Helicobacter pylori-induced pathogenesis in human gastric epithelial cells” (Eur J Med Chem, 2012)
In brackets after ≈: the same amount, converted by molar mass. Activity calls are given as the source filed them. The calls are words filed in the database; no cut-off is given here.

Tests used:
[1] = Antimicrobial activity against Helicobacter pylori 26695 ATCC 700392 at 100 ug/ml by disk agar diffusion method; format: functional; settings: read-out: DIZ
[2] = test system: AGS; assay: Cytotoxicity against human AGS cells assessed as cell viability by MTT assay; format: cell-based
[3] = Antimicrobial activity against Helicobacter pylori 26695 ATCC 700392 at 50 ug/ml by disk agar diffusion method; format: functional; settings: read-out: DIZ
[4] = Antimicrobial activity against Helicobacter pylori 26695 ATCC 700392 at pH 7 by microdilution method; format: functional
[5] = Antimicrobial activity against Helicobacter pylori 26695 ATCC 700392 at pH 5 by microdilution method; format: functional
[6] = test system: Helicobacter pylori; assay: Antimicrobial activity against metronidazole and clarithromycin-resistant Helicobacter pylori v1254 at pH 8 by microdilution method; format: functional
[7] = test system: Helicobacter pylori; assay: Antimicrobial activity against metronidazole and clarithromycin-resistant Helicobacter pylori v1254 at pH 7 by microdilution method; format: functional
[8] = test system: Helicobacter pylori; assay: Inhibition of Helicobacter pylori invasion to human AGS cells at 20 ug/ml after 6 hrs by gentamicin assay relative to control; format: functional
[9] = test system: Helicobacter pylori; assay: Antimicrobial activity against metronidazole and clarithromycin-resistant Helicobacter pylori v1254 at pH 5 by microdilution method; format: functional
[10] = test system: Helicobacter pylori; assay: Antimicrobial activity against metronidazole and clarithromycin-resistant Helicobacter pylori v633 at pH 8 by microdilution method; format: functional
[11] = test system: Helicobacter pylori; assay: Inhibition of Helicobacter pylori adhesion to human AGS cells at 20 ug/ml after 6 hrs by gentamicin assay relative to control; format: functional
[12] = test system: Helicobacter pylori; assay: Antimicrobial activity against metronidazole and clarithromycin-resistant Helicobacter pylori v633 at pH 5 by microdilution method; format: functional
[13] = test system: Helicobacter pylori; assay: Antimicrobial activity against metronidazole and clarithromycin-resistant Helicobacter pylori v633 at pH 7 by microdilution method; format: functional
[14] = Antimicrobial activity against Helicobacter pylori 26695 ATCC 700392 at pH 8 by microdilution method; format: functional
[15] = Antimicrobial activity against Helicobacter pylori 26695 ATCC 700392 at 800 ug/ml by disk agar diffusion method; format: functional; settings: read-out: DIZ
[16] = test system: AGS; assay: Inhibition of NFkappaB activation expressed in human AGS cells infected with Helicobacter pylori at 20 ug/ml relative to control; format: cell-based
[17] = test system: AGS; assay: Inhibition of Helicobacter pylori 26695 ATCC 700392 cytotoxin A-induced vacuolation in human AGS cells after 24 hrs by neutral red uptake assay; format: functional, cell-based
[18] = test system: Helicobacter pylori; assay: Antimicrobial activity against Helicobacter pylori infected in human AGS cells assessed as inhibition of CagA gene translocation at 20 ug/ml after 6 hrs by immunoblot analysis; format: functional
[19] = test system: Helicobacter pylori; assay: Antimicrobial activity against Helicobacter pylori infected in human AGS cells assessed as reduction of tyrosine phosphorylated CagA level translocation at 20 ug/ml after 6 hrs by immunoblot analysis; format: functional
[20] = test system: Helicobacter pylori; assay: Inhibition of Helicobacter pylori 26695 ATCC 700392 CagA-induced pathogenesis in human AGS cells assessed as reduction of hummingbird phenotype of host cells after 6 hrs; format: functional, cell-based; settings: ATCC 700392 26695
[21] = test system: Helicobacter pylori; assay: Inhibition of Helicobacter pylori 26695 ATCC 700392 CagA-induced pathogenesis in human AGS cells assessed as reduction of hummingbird phenotype of host cells at 20 ug/ml after 6 hrs; format: functional; settings: ATCC 700392 26695, AGS
[22] = test system: AGS; assay: Inhibition of NFkappaB activation expressed in human AGS cells infected with Helicobacter pylori at 10 ug/ml relative to control; format: cell-based
[23] = test system: Helicobacter pylori; assay: Antimicrobial activity against Helicobacter pylori infected in human AGS cells assessed as reduction of tyrosine phosphorylated CagA level translocation after 6 hrs by immunoblot analysis; format: functional, organism-based
[24] = test system: Helicobacter pylori; assay: Inhibition of Helicobacter pylori adhesion to human AGS cells at 5 ug/ml after 6 hrs by gentamicin assay relative to control; format: functional
[25] = test system: Helicobacter pylori; assay: Antimicrobial activity against Helicobacter pylori infected in human AGS cells assessed as inhibition of CagA gene translocation after 6 hrs by immunoblot analysis; format: functional, organism-based
[26] = test system: Helicobacter pylori; assay: Inhibition of Helicobacter pylori invasion to human AGS cells at 10 ug/ml after 6 hrs by gentamicin assay relative to control; format: functional
[27] = test system: Helicobacter pylori; assay: Inhibition of Helicobacter pylori invasion to human AGS cells at 5 ug/ml after 6 hrs by gentamicin assay relative to control; format: functional
[28] = test system: Helicobacter pylori; assay: Inhibition of Helicobacter pylori adhesion to human AGS cells at 10 ug/ml after 6 hrs by gentamicin assay relative to control; format: functional
[29] = test system: AGS; assay: Inhibition of NFkappaB activation expressed in human AGS cells infected with Helicobacter pylori assessed as inhibition of IL-8 production at 20 ug/ml relative to control; format: cell-based

COc1cc(Cn2c(-c3ccc(Cl)c(Cl)c3)nc3cc(C)ccc32)cc(OC)c1OC
zone of inhibition at 100 µg/mL [1]: 9 mm

COc1cc(Cn2c(-c3cccc(Cl)c3Cl)nc3cc(C)ccc32)cc(OC)c1OC
zone of inhibition at 100 µg/mL [1]: 13 mm

COc1cc(Cn2c(-c3ccccc3)nc3cc(Cl)ccc32)cc(OC)c1OC
zone of inhibition at 100 µg/mL [1]: 11 mm

COc1cc(Cn2c(-c3ccccc3)nc3cc(C)c(C)cc32)cc(OC)c1OC
zone of inhibition at 100 µg/mL [1]: 16 mm

COc1cc(Cn2c(-c3ccccc3)nc3ccc(Cl)cc32)cc(OC)c1OC
zone of inhibition at 100 µg/mL [1]: 14 mm

COc1ccc(-c2nc3cc(C)ccc3n2Cc2cc(OC)c(OC)c(OC)c2)cc1
zone of inhibition at 100 µg/mL [1]: 22 mm | Activity [2]: Toxic

COc1cc(Cn2c(-c3c(F)cccc3F)nc3cc(C)ccc32)cc(OC)c1OC
zone of inhibition at 100 µg/mL [1]: 24 mm | Activity [2]: Toxic

COc1ccc2nc(-c3ccccc3)n(Cc3cc(OC)c(OC)c(OC)c3)c2c1
zone of inhibition at 100 µg/mL [1]: 0 mm

COc1cc(Cn2c(-c3ccccc3)nc3cc(C)ccc32)cc(OC)c1OC
zone of inhibition at 100 µg/mL [1]: 22 mm | Activity [2]: Toxic

COc1ccccc1-c1nc2cc(C)ccc2n1Cc1cc(OC)c(OC)c(OC)c1
zone of inhibition at 100 µg/mL [1]: 21 mm | Activity [2]: Toxic

COc1cc(Cn2c(-c3ccc(F)cc3)nc3cc(C)ccc32)cc(OC)c1OC
zone of inhibition at 100 µg/mL [1]: 17 mm

COc1cc(Cn2c(-c3cccc(F)c3)nc3cc(C)ccc32)cc(OC)c1OC
zone of inhibition at 100 µg/mL [1]: 0 mm

CC1(C)S[C@@H]2[C@H](NC(=O)[C@H](N)c3ccc(O)cc3)C(=O)N2[C@H]1C(=O)O [AMOXICILLIN]
zone of inhibition at 50 µg/mL [3]: 14 mm

COc1ccc(-c2nc3ccc(C)cc3n2Cc2cc(OC)c(OC)c(OC)c2)cc1
zone of inhibition at 100 µg/mL [1]: 15 mm

Cc1ncc([N+](=O)[O-])n1CCO [METRONIDAZOLE]
MBC [4]: 12.5 µg/mL (≈ 73 µM) | MBC [5]: 6.25 µg/mL (≈ 36.5 µM) | MBC [6]: 100 µg/mL (≈ 584 µM) | MBC [7]: 100 µg/mL (≈ 584 µM) | inhibition at 20 µg/mL [8]: 20% | MBC [9]: 100 µg/mL (≈ 584 µM) | MBC [10]: 50 µg/mL (≈ 292 µM) | inhibition at 20 µg/mL [11]: 20% | MBC [12]: 50 µg/mL (≈ 292 µM) | MBC [13]: 50 µg/mL (≈ 292 µM) | MBC [14]: 12.5 µg/mL (≈ 73 µM) | zone of inhibition at 800 µg/mL [15]: 7 mm

c1ccc2[nH]cnc2c1 [BENZIMIDAZOLE]
MBC [4]: 400 µg/mL (≈ 3390 µM) | MBC [5]: > 800 µg/mL | zone of inhibition at 100 µg/mL [1]: 0 mm | inhibition [16]: Active | MBC [6]: 400 µg/mL (≈ 3390 µM) | MBC [7]: 400 µg/mL (≈ 3390 µM) | inhibition [17]: Active | MBC [9]: > 800 µg/mL | MBC [10]: 400 µg/mL (≈ 3390 µM) | MBC [12]: > 800 µg/mL | MBC [13]: 400 µg/mL (≈ 3390 µM) | MBC [14]: > 800 µg/mL

COc1cc(Cn2c(-c3ccccc3F)nc3cc(C)ccc32)cc(OC)c1OC
inhibition at 20 µg/mL [18]: 55% | inhibition at 20 µg/mL [19]: 55% | MBC [4]: 25 µg/mL (≈ 61.5 µM) | MBC [5]: 25 µg/mL (≈ 61.5 µM) | zone of inhibition at 100 µg/mL [1]: 24 mm | inhibition [20]: Dose-dependent effect | inhibition at 20 µg/mL [21]: 98% | inhibition [16]: 42% | inhibition [22]: 14% | inhibition [23]: Dose-dependent effect | inhibition at 5 µg/mL [24]: 6% | inhibition [25]: Dose-dependent effect | MBC [6]: 12.5 µg/mL (≈ 30.8 µM) | MBC [7]: 12.5 µg/mL (≈ 30.8 µM) | inhibition at 20 µg/mL [8]: 52% | inhibition [17]: Dose-dependent effect | MBC [9]: 12.5 µg/mL (≈ 30.8 µM) | inhibition at 10 µg/mL [26]: 28% | MBC [10]: 12.5 µg/mL (≈ 30.8 µM) | inhibition at 20 µg/mL [11]: 58% | inhibition at 5 µg/mL [27]: 7% | inhibition at 10 µg/mL [28]: 31% | MBC [12]: 12.5 µg/mL (≈ 30.8 µM) | MBC [13]: 12.5 µg/mL (≈ 30.8 µM) | MBC [14]: 25 µg/mL (≈ 61.5 µM) | Activity [2]: Non-toxic | inhibition [29]: 85%

COc1cc(Cn2c(-c3cccc(C)c3)nc3cc(C)ccc32)cc(OC)c1OC
zone of inhibition at 100 µg/mL [1]: 19 mm

COc1cc(Cn2c(-c3ccc(Cl)cc3Cl)nc3cc(C)ccc32)cc(OC)c1OC
zone of inhibition at 100 µg/mL [1]: 11 mm

COc1cc(Cn2c(-c3ccc(C#N)cc3)nc3cc(C)ccc32)cc(OC)c1OC
zone of inhibition at 100 µg/mL [1]: 12 mm

COc1cc(Cn2c(-c3ccccc3C)nc3cc(C)ccc32)cc(OC)c1OC
zone of inhibition at 100 µg/mL [1]: 14 mm

COc1cc(Cn2c(-c3ccccc3)nc3ccc(C)cc32)cc(OC)c1OC
zone of inhibition at 100 µg/mL [1]: 21 mm | Activity [2]: Toxic

COc1cc(Cn2c(-c3ccc4ccccc4c3)nc3cc(C)ccc32)cc(OC)c1OC
zone of inhibition at 100 µg/mL [1]: 0 mm

CC[C@H]1OC(=O)[C@H](C)[C@@H](O[C@H]2C[C@@](C)(OC)[C@@H](O)[C@H](C)O2)[C@H](C)[C@@H](O[C@@H]2O[C@H](C)C[C@H](N(C)C)[C@H]2O)[C@](C)(OC)C[C@@H](C)C(=O)[C@H](C)[C@@H](O)[C@]1(C)O [CLARITHROMYCIN]
zone of inhibition at 50 µg/mL [3]: 21 mm

COc1ccc(-c2nc3ccc(Cl)cc3n2Cc2cc(OC)c(OC)c(OC)c2)cc1
zone of inhibition at 100 µg/mL [1]: 12 mm

COc1ccc(-c2nc3cc(Cl)ccc3n2Cc2cc(OC)c(OC)c(OC)c2)cc1
zone of inhibition at 100 µg/mL [1]: 11 mm

COc1cc(Cn2c(-c3cc(F)ccc3F)nc3cc(C)ccc32)cc(OC)c1OC
zone of inhibition at 100 µg/mL [1]: 11 mm

COc1cc(Cn2c(-c3ccccc3Cl)nc3cc(C)ccc32)cc(OC)c1OC
zone of inhibition at 100 µg/mL [1]: 21 mm | Activity [2]: Toxic

COc1cc(Cn2c(-c3cccc4ccccc34)nc3cc(C)ccc32)cc(OC)c1OC
zone of inhibition at 100 µg/mL [1]: 12 mm

COc1cc(Cn2c(-c3ccccc3)nc3cc(F)ccc32)cc(OC)c1OC
zone of inhibition at 100 µg/mL [1]: 17 mm

COc1cccc(-c2nc3cc(C)ccc3n2Cc2cc(OC)c(OC)c(OC)c2)c1
zone of inhibition at 100 µg/mL [1]: 0 mm
